Results as given in patent US8912202B2, “N-(benzimimdazol-2-yl)-cyclopropane carboxamides as lysophosphatidic acid antagonists” (Merck Patent GmbH, priority 2011, dated 2014).

target: T1, LPA2R (Homo sapiens, UniProt Q9HBW0); experiment: LPA2R-Calciumflux assay (FLIPR, intracellular calcium mobilisation after LPA); type: cell-based; conditions: U2OS cells recombinant expressing LPA2R; antagonism of LPA-induced calcium flux; racemate of the two trans enantiomers unless marked enantiomer
T1 construct: expressed in transfected cells; host or cells: U2OS
T1 sequence (Q9HBW0 whole entry): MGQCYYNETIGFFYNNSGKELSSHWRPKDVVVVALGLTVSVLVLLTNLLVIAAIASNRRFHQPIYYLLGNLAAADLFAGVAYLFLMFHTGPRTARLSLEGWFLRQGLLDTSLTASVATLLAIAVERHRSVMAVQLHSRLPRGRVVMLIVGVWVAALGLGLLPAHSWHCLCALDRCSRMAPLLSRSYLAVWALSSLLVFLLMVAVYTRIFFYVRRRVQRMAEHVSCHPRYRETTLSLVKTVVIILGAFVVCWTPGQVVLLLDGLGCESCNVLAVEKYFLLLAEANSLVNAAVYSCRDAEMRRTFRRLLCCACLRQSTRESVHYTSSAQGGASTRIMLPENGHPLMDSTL
From the text: The assay detects intra cellular calcium which is generated by cells upon activation of the LPA2 receptor by its ligand LPA. This transient calcium mobilization can be monitored using a commercial calcium detection kit (e.g. from Molecular Devices). The main component of such a kit is a dye, which becomes fluorescent when calcium is present—a transient fluorescence signal after addition of a ligand to a test well are the result. Readers like the FLIPR (Molecular Devices) can be used to monitor such transient “Ca-flux” signals.
The signals are calculated according to peak maximum minus base line.
Compounds which are antagonists of LPA lead to a decreased mobilisation of intracellular calcium and thus to a lower signal. The assay is performed in microplates (384 wells per plate).
LPA2R-Calciumflux Assay Protocol
The assay is run according to the following procedure:
50 uL seed cells (10000 cells/well in DMEM buffer)
• Incubate 24 h at 37° C., 10% CO2 • aspirate medium 50 uL add calcium dye 1×HBSS/HEPES buffer • incubate 1 h at 37° C. (“loading”) • equilibrate 10 min at RT 5 uL add compounds in HEPES buffer • shake 10 sec. at 1000 rpm • incubate 15 min at RT 20 uL add LPA (in the FLIPR Tetra) in Krebs-buffer/BSA & measurement
The cells are seeded in DMEM buffer (DMEM, 10% FCS, 10 mM HEPES, 1% Pen/Strep).
Dye loading is done in HBSS/HEPES buffer (100 mL 10×HBSS+20 mL 1M HEPES+880 mL water, pH 7.4)
The LPA is added in Krebs/BSA buffer (120 mM NaCl, 5 mM KCl, 0.62 mM MgSO4, 1.8 mM CaCl2, 10 mM HEPES, 6 mM D(+)-Glucose, 0.2% BSA, pH 7.4).
The compounds are pre-diluted in HEPES buffer (20 mM, pH 7.4), whereby the final DMSO content in the assay is kept at 1%. The compounds are pre-diluted in order to generate dose response series on the microplates. The dose response series consist of 10 concentrations for each compound from 30 uM final to 1 nM final. From all compound wells the resulting signals are referred to control wells (located on each plate besides the compound wells) in terms of % activity.
From these % activity values—along with the corresponding compound concentrations—IC50 values are fitted for each compound using standard fitting programs such as Graphpad Prism. Here the method “log(inhibitor) vs. response—Variable slope” is used.

IC50	Compound
0.1 to 1 µM	O=C(Nc1nc2ccccc2[nH]1)C1C(c2ccccc2)C1(F)F (racemic) [2,2-Difluoro-3-phenyl-cyclopropane-carboxylic acid (1H-benzoimidazol-2-yl)-amide]
> 10 µM	COC(=O)c1cccc2nc(NC(=O)C3CC3c3ccccc3Cl)[nH]c12 (single isomer, unassigned; enantiomer-2) [enantiomer-2-{[2-(2-Chloro-phenyl)-cyclopropane-carbonyl]-amino}-3H-benzoimidazole-4-carboxylic acid methyl ester]
> 10 µM	CC1(C)C(C(=O)Nc2nc3ccc(Cl)cc3[nH]2)C1c1ccccc1 (racemic) [2,2-Dimethyl-3-phenyl-cyclopropane-carboxylic acid (6-chloro-1H-benzoimidazol-2-yl)-amide]
0.1 to 1 µM	O=C(Nc1nc2c(Cl)cc(Cl)cc2[nH]1)C1CC1c1ccccc1 (racemic) [2-Phenyl-cyclopropane-carboxylic acid (4,6-dichloro-1H-benzoimidazol-2-yl)-amide]
0.1 to 1 µM	O=C(Nc1nc2ccccc2[nH]1)C1CC1c1cccc(Cl)c1Cl (racemic) [2-(2,3-Dichloro-phenyl)-cyclopropane-carboxylic acid (1H-benzoimidazol-2-yl)-amide]
0.01 to 0.1 µM	O=C(Nc1nc2ccccc2[nH]1)C1CC1c1ccccc1Cl (single isomer, unassigned; enantiomer-2) [drawing 75, enantiomer-2-(2-Chloro-phenyl)-cyclopropane-carboxylic acid (1H-benzoimidazol-2-yl)-amide]
> 10 µM	CC1(C)C(C(=O)Nc2nc3ccc(C(F)(F)F)cc3[nH]2)C1c1ccccc1 (racemic) [2,2-Dimethyl-3-phenyl-cyclopropane-carboxylic acid (6-trifluoromethyl-1H-benzoimidazol-2-yl)-amide]
> 10 µM	COc1cccc(C2CC2C(=O)Nc2nc3ccccc3[nH]2)c1 (racemic) [2-(3-Methoxy-phenyl)-cyclopropane-carboxylic acid (1H-benzoimidazol-2-yl)-amide]
